Reference: the supplement of paper PMC10883282
± gives the standard deviation of the averaged measurements.

Legend:
Assay in all cases: relative viability vs DMSO control (72 h) (fraction); higher = more viable cells
A204 = system: A204
Outline: (§1)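 Plates held 72 h at 37 °C and 5% CO2 contained sarcoma cell lines seeded in 384-well format to reach 80–90% confluence, plus 2.5 µl of serially diluted compound added after 24 h. Source plate concentrations ran from 10 mM to 0.0002 mM, with 0.1% DMSO as vehicle and a 5 µM positive control. Percent growth from ATPLite readings, averaged over up to triplicate wells, gave relative viability. Values were rescaled with 1 as full and 0 as none.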

G401 = system: G401
Outline: as §1

HS729 = system: HS729
Outline: as §1

KHOS-240S = system: KHOS-240S
Outline: as §1

MES-SA = system: MES-SA
Outline: as §1

SK-ES-1 = system: SK-ES-1
Outline: as §1

CN1CCN(c2ccc(C(=O)Nc3n[nH]c4ccc(Cc5cc(F)cc(F)c5)cc34)c(NC3CCOCC3)c2)CC1 [Entrectinib]
relative viability
Details	A204	G401	HS729	KHOS-240S	MES-SA	SK-ES-1
0.00017 µM	1.05 ± 0.059	1.04 ± 0.037	1.06 ± 0.037	1.06 ± 0.035	0.942 ± 0.038	1.09 ± 0.025
0.00051 µM	1.06 ± 0.09	1.01 ± 0.035	0.975 ± 0.043	1.061 ± 0.0065	0.942 ± 0.031	1.04 ± 0.032
0.00152 µM	1.04 ± 0.053	1.057 ± 0.0092	0.931 ± 0.047	1.1 ± 0.08	0.931 ± 0.049	1.05 ± 0.047
0.00457 µM	1.06 ± 0.062	1.07 ± 0.021	0.948 ± 0.015	1.08 ± 0.071	0.925 ± 0.049	1.06 ± 0.049
0.01372 µM	1.09 ± 0.04	1.03 ± 0.038	0.946 ± 0.031	1.08 ± 0.082	0.899 ± 0.013	1.03 ± 0.057
0.04115 µM	1.04 ± 0.042	1.01 ± 0.016	0.959 ± 0.056	1.07 ± 0.058	0.904 ± 0.033	1.1 ± 0.013
0.1235 µM	1.02 ± 0.058	1.011 ± 0.0094	0.925 ± 0.013	1.08 ± 0.073	0.892 ± 0.021	1.05 ± 0.034
0.3704 µM	1.05 ± 0.075	0.979 ± 0.015	0.919 ± 0.039	1 ± 0.066	0.893 ± 0.02	0.959 ± 0.046
1.111 µM	1.04 ± 0.064	0.87 ± 0.064	0.832 ± 0.027	0.939 ± 0.089	0.821 ± 0.015	0.844 ± 0.038
3.333 µM	0.865 ± 0.072	0.651 ± 0.058	0.665 ± 0.0099	0.617 ± 0.063	0.702 ± 0.021	0.465 ± 0.035
10 µM	0.228 ± 0.11	0.163 ± 0.13	0.382 ± 0.016	0.0159 ± 0.0044	0.364 ± 0.045	0.105 ± 0.0077
